For one experiment, the system named is cancer cells. The following applies: cited from earlier work.
For experiment [1], the system named is MCF7 cells. As to the kind of experiment: Confocal immunofluorescence scoring of asymmetrically dividing and G0-like (H3K9me2low/MCM2low/HES1high) cells. Format: cell-based, human. To be noted: MCF7; small molecule for 72 h at the single dose (low, non-antiproliferative or target-suppressing); vs DMSO control. The protocol:
(§1) Drug treatment in vitro. Cells were seeded onto collagen IV-coated coverslips, allowed to attach overnight, and treated with vehicle (DMSO) or AKT1/2 inhibitor (HCT116: 20μM; MCF7: 2 μM) (Sigma), MK2206 (HCT116: 10 μM; MCF7: 3 μM) (Selleck Chemicals), TORIN1 (HCT116: 0.5 μM; MCF7: 0.25 μM) (Tocris Bioscience), AZD8055 (HCT116: 0.7 μM; MCF7: 0.1 μM) (Selleck Chemicals), INK128 (HCT116: 0.05 μM; MCF7: 0.01 μM) (Active Biochem), Palomid 529 (HCT116: 10 μM; MCF7: 20 μM) (Selleck Chemicals), (Rapamycin (HCT116: 20 μM; MCF7: 20 μM)(Sigma), RAD-001 (HCT116: 10 μM; MCF7: 5 μM) (Selleck Chemicals), (AZD5363 (HCT116: 50 μM; MCF7: 5 μM) (Active Biochem), GDC0068 (HCT116: 50 μM; MCF7: 5 μM) (Active Biochem) for 72 h and Bortezemib (HCT116: 1 μM; MCF7: 4 μM) (Selleck Chemicals) MG-132 (vehicle: ethanol) (HCT116: 1 μM; MCF7: 10 μM), for 24 h.
(§2) Immunofluorescence staining. For bulk populations and for colonies, cells were grown directly on collagen IV-coated coverslips (Sigma). Cells were fixed in 3.7% formalin, permeabilized using 0.1% Triton X-100, and treated with 0.1% SDS. They were blocked in 1% BSA and then incubated with primary antibody (α-H3K9me2 (Abcam); α-MCM2 and α-Tubulin (Cell Signaling), α-Hes1 and α-TTC3 (Abnova)) diluted in blocking solution, washed, and incubated with the respective secondary antibody. Cells were mounted using hard-set mounting media containing DAPI (Vector Laboratories). All secondary antibodies were Alexa Fluor conjugates (488, 555, 568, 633, and 647) (Invitrogen). Immunofluorescence imaging (on a Nikon Eclipse Ti A1R-A1 confocal microscope) and live-cell imaging (on the Nikon Biostation CT platform) were performed as previously described (1).
(§3) Drug treatment in vitro. Cells were seeded onto collagen IV-coated coverslips, allowed to attach overnight, and treated with vehicle (DMSO) or AKT1/2 inhibitor (HCT116: 20 μM; MCF7: 2 μM) (Sigma), MK2206 (HCT116: 10 μM; MCF7: 3 μM) (Selleck Chemicals), TORIN1 (HCT116: 0.5 μM; MCF7: 0.25 μM) (Tocris Bioscience), AZD8055 (HCT116: 0.7 μM; MCF7: 0.1 μM) (Selleck Chemicals), INK128 (HCT116: 0.05 μM; MCF7: 0.01 μM) (Active Biochem), Palomid 529 (HCT116: 10 μM; MCF7: 20 μM) (Selleck Chemicals), (Rapamycin (HCT116: 20 μM; MCF7: 20 μM)(Sigma), RAD-001 (HCT116: 10 μM; MCF7: 5 μM) (Selleck Chemicals), BKM-120 (HCT116: 1.5 μM; MCF7: 0.5 μM) (Active Biochem), FAK inhibitors (PF-562271: 1 μM Pfizer) and NVP-TAE226 : 1 μM (Novartis), for both cell lines) for 72 h and Bortezemib (HCT116: 1 μM; MCF7: 4 μM) (Selleck Chemicals) MG-132 (vehicle: ethanol) (HCT116: 1 μM; MCF7: 10 μM), for 24 h.
as §2, with “(a-H3K9me2” for “(α-H3K9me2”, “A1R-A1™” for “A1R-A1”, “described7. Slides coated with Type-I collagen (control) and AlignCol™ woven with large collagen fibers (100-200 nm) (Advanced Biomatrix) were incubated for 1 hour in 70% ethanol and then washed with PBS. Cells were then plated on the slides and processed for immunofluorescence.” for “described (1).”
(§4) Antibody activation and inhibition. […]

For experiment [2], the system named is HCT116 cells. The description is as above. Format: cell-based, human. To be noted: HCT116; small molecule for 72 h at the single dose (low, non-antiproliferative or target-suppressing); vs DMSO control. On the procedure: as §1, §2, §3
as §2, with “(a-H3K9me2” for “(α-H3K9me2”, “A1R-A1™” for “A1R-A1”, “described7. Slides coated with Type-I collagen (control) and AlignCol™ woven with large collagen fibers (100-200 nm) (Advanced Biomatrix) were incubated for 1 hour in 70% ethanol and then washed with PBS. Cells were then plated on the slides and processed for immunofluorescence.” for “described (1).”
as §4

The subject of experiment [3] is MCF7 cells. The experiment can be described thus: Tumor formation in nude mice by cells pre-treated ex vivo with AKT1/2 inhibitor. The protocol: (§5) Xenografting & tumor propagation in vivo. For in vivo RICTOR knockdown experiments, 5×10^5 cells (MCF7, HCT116, A375, PC9, MDA-MB-231 cell lines) carrying either doxycycline-inducible non-silencing or RICTOR-targeting shRNAs (120392, 225915) were injected subcutaneously into the flanks of 5-6 week old, female nude mice. The mice were given doxycycline in water at 20 mg/ml for hairpin induction. For induction of asymmetrically dividing cells and slow proliferators, cells were treated with AKT1/2 inhibitor and DMSO (vehicle) for 72 h and were harvested at 60-70% confluence, and then counted and washed twice in PBS and resuspended in 1:1 Media: Matrigel (BD Biosciences). 5×10^6, 5×10^5, 5×10^4, 5×10^3 and 5×10^2 cells respectively were injected subcutaneously into the flanks of 5-6 week old, female nude mice (Nude/Nude) (Charles River Labs). For all experiments, growing tumors were measured weekly by caliper, and mice were killed after the tumor size reached 1 cm^3. Mouse experiments were carried out under a Massachusetts General Hospital Institutional Review Board-approved protocol.
(§6) Tumor studies in vivo. For TS2/16 antibody treatment studies in vivo, we injected 5×10^5 cells (A375, MDA-MB-231, PC9, HCT116, MCF7) subcutaneously into the flanks of 5-6 week old, female nude mice (Nude/Nude) (Charles River Labs). Once the tumors were palpable, mice were injected i.p. with TS2/16 ([…] at 4 mg/ml/wk×5 weeks) and the tumors were measured. For RICTOR knockdown experiments in vivo, we injected 5×10^5 cells (A375, MDA-MB-231, PC9, HCT116, MCF7) carrying either doxycycline-inducible non-silencing or RICTOR-targeting shRNAs (120392, 225915) subcutaneously into the flanks of 5-6 week old, female nude mice (Nude/Nude). The mice were given doxycycline in water at 20 mg/ml for hairpin induction starting immediately after implantation. For induction of slow proliferators, cells were treated with AKT1/2 inhibitor and DMSO (vehicle) for 72 h and were harvested at 60-70% confluence, and then counted and washed twice in PBS and resuspended in 1:1 Media: Matrigel (BD Biosciences). We then injected 5×106, 5×105, and 5×10^4 cells respectively subcutaneously into the flanks of 5-6 week old, female nude mice. For all experiments, growing tumors were measured weekly by caliper, and mice were killed when tumors reached approximately 1 cm3 in size. Animal experiments were carried out under a Massachusetts General Hospital Institutional Review Board-approved protocol.

For experiment [4], the system named is HCT116 cells. The experiment is described as above. The protocol:
as §5, §6

Structures are written as SMILES. Entries after “also recorded” stand apart in the source; their conditions may differ.

Turning to `O=c1[nH]c2ccccc2n1C1CCN(Cc2ccc(-c3nc4cc5[nH]cnc5cc4nc3-c3ccccc3)cc2)CC1` [AKT1/2], the “effect on cancer cells at higher doses” value in the experiment with cancer cells was “kills cancer cells”. In addition, the “frequency of asymmetrically dividing and G0-like cells” value with MCF7 cells [1] and in the experiment on HCT116 cells [2] was “dramatically increases” in each case. In addition, the “tumor size, larger on average than tumors from untreated cell populations” value in the experiment on MCF7 cells [3] (MCF7 pre-treated 72 h, implanted in nude mice) worked out at 50%; in the experiment on HCT116 cells [4] (HCT116 pre-treated 72 h, implanted in nude mice), 50%. In addition, the engraftment entry in the experiment with MCF7 cells [3] (MCF7 pre-treated 72 h with low dose, implanted s.c. in nude mice over a range of cell numbers, vs DMSO-treated cells) is “significantly increased; also recorded: significantly promoted”; in the experiment with HCT116 cells [4] (HCT116 pre-treated 72 h with low dose, implanted s.c. in nude mice over a range of cell numbers, vs DMSO-treated cells) it was “significantly increased; also recorded: significantly promoted”. The “tumor size over time” value was “notably larger” in the experiment with MCF7 cells [3] (MCF7 pre-treated with low dose ex vivo, s.c. in nude mice, 100-fold cell number range) and “notably larger” in the experiment on HCT116 cells [4] (HCT116 pre-treated with low dose ex vivo, s.c. in nude mice, 100-fold cell number range).
